Structures are written as SMILES. Some results are limits rather than exact numbers.

These results are taken from patent US8227506B2, “Benzamidine compound” (Ajinomoto., Inc., priority 2005, dated 2012).

Data set [1] can be described thus: Evaluation of stability in plasma. The data set is classed as in vitro ADME. The conditions noted are these: disappearance half-life in human plasma, 37° C., final drug concentration 10 μM, HPLC. As for the experimental part: Evaluation of Stability in Plasma
A […] solution (5 μl) of the test compound was added to human plasma (495 μl) (final drug concentration, 10 μM), and the mixture was incubated at 37° C. Samples (each 50 μl) were taken at 0 minutes, 3 minutes, 10 minutes, and 20 minutes after addition of the drug solution, diluted with distilled water (50 μl), and the reaction was quenched by adding 100% acetonitrile (300 μl) and blending them. After deproteinization by centrifugation at 15000 rpm for 5 minutes, the mixture was concentrated to dryness by a centrifugal evaporator. The sample was dissolved in 120 μl of 0.1% aqueous TFA, the peak area or height of the test compound was calculated by HPLC, and the disappearance half-life was determined.

Another data set deals with human plasma. Description: Determination of anticoagulant activity (aPTT measurement method). The note with it: negative logarithm of the concentration prolonging the aPTT of the control to two-fold. The method, then: Determination of Anticoagulant Activity
The aPTT measurement method using an automatic blood coagulation time measuring device, Sysmex CA-3000 (TOA Medical Electronics Co., Ltd.) was performed. A solution (5 μl) of the test compound was placed in a sample tube (SU-40, TOA Medical Electronics Co., Ltd.), human plasma (hemolyance coagulation control I, iatron Laboratory, 45 μl) was added and the mixture was incubated at 37° C. for 3 minutes. To the plasma solution were added dataphay•APTT (rabbit brain-derived cephalin, DADE Behring Co., Ltd., 50 μl) and 0.02 M calcium chloride (50 μl), and the time up to the coagulation of plasma was automatically measured. The anticoagulation activity is shown as the negative logarithm of the concentration prolonging the aPTT of the control to two-fold (paPTT2).

The target in the next data set is FXa (Homo sapiens, UniProt P00742). Description: Determination of activated factor X activity-inhibitory activity (chromogenic substrate S-2222). The data set is classed as biochemical. The conditions noted are these: negative logarithm of the concentration suppressing 50% of the reaction rate of the control, 0.015 U/ml FXa. As for the experimental part: Determination of Activated Factor X Activity-Inhibitory Activity
Sequence of FXa (P00742 235-488 limits assumed): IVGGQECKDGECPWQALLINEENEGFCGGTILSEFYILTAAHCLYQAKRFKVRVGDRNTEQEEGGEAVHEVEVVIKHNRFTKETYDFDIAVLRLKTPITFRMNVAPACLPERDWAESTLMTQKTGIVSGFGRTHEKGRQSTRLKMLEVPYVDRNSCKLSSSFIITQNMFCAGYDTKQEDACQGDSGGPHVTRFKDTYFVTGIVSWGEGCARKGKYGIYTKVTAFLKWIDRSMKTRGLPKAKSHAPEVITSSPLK
Sequence of FXa (P00742 41-179 partner limits assumed): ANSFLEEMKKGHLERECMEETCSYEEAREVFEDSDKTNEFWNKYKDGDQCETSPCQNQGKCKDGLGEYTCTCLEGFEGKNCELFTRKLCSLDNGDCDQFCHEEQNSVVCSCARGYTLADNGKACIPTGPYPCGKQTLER
(§1) Using a 96 well plate (#3396, Costar), 0.015 U/ml FXa (10 μL) and a test compound (10 μL) were blended with 100 mM Tris-HCl buffer (130 μL) containing 0.02% Tween 20, 0.1% PEG6000 and 0.2 M NaCl for 10 minutes, and a substrate for color development (0.2 mM S-2222 50 μL) was added thereto. Using a Microplate reader Benchmark Plus (BIO-RAD), the reaction rate was measured from the time course changes at absorbance 405 nm. The reaction rate of the control was taken as 100% and the negative logarithm of the concentration capable of suppressing 50% of the reaction rate of the control was taken as the pIC50 value.

In data set [2] the target is activated factor IIa (thrombin) (Homo sapiens, UniProt P00734). Description: Determination of activated factor II (FIIa, thrombin)-inhibitory activity (chromogenic substrate S-2238). The data set is classed as biochemical. The note with it: negative logarithm of the concentration suppressing 50% of the reaction rate of the control, 0.125 U/ml thrombin. As for the experimental part: Determination of Activated Factor II (FIIa, Thrombin)-Inhibitory Activity
as §1, with “0.125” for “0.015”, “activated factor IIa (thrombin)” for “FXa”, “(0.1” for “(0.2”, “S-2238” for “S-2222”

A further data set deals with dog dialysis model. Description: Evaluation of dog dialysis model. It counts as in vivo, dog (Beagles). As for the experimental part:
Evaluation of Dog Dialysis Model
Beagles (♂, 11 kg-15 kg, Nosan Corp., Japan) were anesthetized with pentobarbital (30 mg/kg, Tokyo Chemical Industry Co., Ltd.) by intravenous administration from the cephalic vein of the forefoot. A tracheostomy tube was inserted and artificial breathing was started. Placing needles [14G (serflow placing needle, Termo Corp.), 16G (happycath, Medikit Co., Led), 18G (serflow placing needle, Termo Corp.)] were punctured into the left femoral vein, right femoral artery, and right cephalic vein of the forefoot, respectively, and an outer shunt (Senko Medical Instrument Mfg. CO., Ltd.) filled with saline was set to the femoral vein and artery. For hemodialysis, a hemodialysis device for one person (DBG-01, Nikkiso Co., Ltd.), a hollow fiber dialyzer (FB-50, triacetate (CTA) film, Nipro Corp.) and sodium bicarbonate dialysate (AK-sorita•DL, Shimizu Corp.) were used.
The experiment was performed under the conditions of blood flow 80 ml/minute, dialysate flow 300 ml/minute, water removal amount 0 ml/minute. During dialysis, pentobarbital (12 mg/kg/hour) was continuously administered from the cephalic vein of the forefoot to maintain anesthesia. The control and test compounds were continuously administered into the arterial blood circuit (B) at 5 ml/hour. […]

As a reminder, the half-life is the time in which the quantity being followed falls by half. A lower half-life goes with fast loss. For orientation: IC50 means the concentration that inhibits the measured activity by half. Lower therefore signals higher potency. For `COc1ccc(C(=N)N)cc1OCCOC(=O)c1ccc(C(=N)N2CCCC2)cc1` [Ex. 18, 2-{5-amidino-2-methoxyphenoxy}ethyl 4-[imino(pyrrolidin-1-yl)methyl]benzoate ditrifluoroacetate], the half-life at 10 μM in data set [1] is 1.1 min. In the data set with human plasma, the paPTT2 turned out to be 5.2. Besides, the values for the IC50 (on FXa; in data set [2]) were 251 nM and greater than 100000 nM, respectively.
In data set [1], `N=C(N)c1cccc(OCCOC(=O)c2ccc(OC3CCN(C(=N)N)CC3)cc2)c1` [Ex. 17, 2-{3-amidinophenoxy}ethyl 4-({1-amidinopiperidin-4-yl}oxy)benzoate ditrifluoroacetate] came in with a half-life at 10 μM of 5.6 min. Besides, the half-maximal inhibitory concentration (IC50) against FXa was 63.1 nM; in data set [2] it was greater than 100000 nM.
Consider `N=C(N)c1cccc(OCCOC(=O)c2ccc(C(=N)N3CCCC3)nc2)c1` [Ex. 37, 2-(3-amidinophenoxy)ethyl 6-[imino(pyrrolidin-1-yl)methyl]nicotinate tritrifluoroacetate], for which, in the data set on human plasma, the paPTT2 stood at 5.2. Further, the figures for the concentration for half-maximal inhibition (IC50) (at FXa; in data set [2]) were 200 nM and greater than 100000 nM, respectively.
`CC(C)COc1ccc(C(=N)N)cc1OCCOC(=O)c1ccc(C(=N)N2CCCC2)cc1` [Ex. 24, 2-{5-amidino-2-isobutoxyphenoxy}ethyl 4-[imino(pyrrolidin-1-yl)methyl]benzoate ditrifluoroacetate] had a half-life at 10 μM in data set [1] of 0.7 min. Also, the results for the 50% inhibitory concentration (IC50) (against FXa; in data set [2]) were 39.8 nM and 12600 nM, respectively.
On to `CC(=N)N1CCC(Oc2ccc(C(=O)OCCOc3cccc(C(=N)N)c3)cc2)CC1` [Ex. 16, 2-{3-amidinophenoxy}ethyl 4-[(1-(1-iminoethyl)piperidin-4-yl)oxy]benzoate ditrifluoroacetate], for which the half-life at 10 μM in data set [1] is 1.7 min. The compound further gave a paPTT2 with human plasma of 5.4. Also, the values for the IC50 (at FXa; in data set [2]) were 63.1 nM and greater than 100000 nM, respectively.
In turn, `N=C(N)c1ccc(OCCO)c(OCCOC(=O)c2ccc(C(=N)N3CCCC3)cc2)c1` [Ex. 13, 2-[5-amidino-2-(2-hydroxyethoxy)phenoxy]ethyl 4-[imino(pyrrolidin-1-yl)methyl]benzoate ditrifluoroacetate] displayed a half-life at 10 μM in data set [1] of 2.7 min. Further, the paPTT2 in the data set on human plasma turned out to be 6.4. Also, the 50% inhibitory concentration (IC50) against FXa is 15.8 nM; in data set [2], 63100 nM.
Taken in the same sequence, the figures for `N=C(N)c1ccc(O)c(OCCOC(=O)c2ccc(C(=N)N3CCCC3)cc2)c1` [Ex. 6, 2-{5-amidino-2-hydroxyphenoxy}ethyl 4-[imino(pyrrolidin-1-yl)methyl]benzoate ditrifluoroacetate] were 1.6 min, 6, 3.16 nM and 79400 nM.
The compound `N#CCOc1ccc(C(=N)N)cc1OCCOC(=O)c1ccc(C(=N)N2CCCC2)cc1` [Ex. 20, 2-[5-amidino-2-(cyanomethoxy)phenoxy]ethyl 4-[imino(pyrrolidin-1-yl)methyl]benzoate ditrifluoroacetate] came in with a half-life at 10 μM in data set [1] of 2.1 min. Also, the bleeding time entry with dog dialysis model (Template method, 2 hour after the start of the administration, versus control (FIG. 2)) is listed as “of the same level as the control”. In addition, the dialysis time with dog dialysis model (up to arterial circuit pressure 300 mmHg or 4 hours after the start of the dialysis (FIG. 1)) came out at 4 h. Besides, the IC50 on FXa was 12.6 nM; in data set [2] it was 6310 nM.
With `CC(=O)Oc1ccc(C(=N)N)cc1OCCOC(=O)c1ccc(C(=N)N2CCCC2)cc1` [Ex. 28, 2-{2-(acetoxy)-5-amidinophenoxy}ethyl 4-[imino(pyrrolidin-1-yl)methyl]benzoate ditrifluoroacetate], the half-life at 10 μM in data set [1] is 3.5 min. In addition, the concentration for half-maximal inhibition (IC50) against FXa was 3.98 nM; in data set [2], 1580 nM.
